# Laboratory results from patent US7091220B2, “Substituted indole Mannich bases” (Gruenenthal GmbH, priority 1999, dated 2006).
# Target: T1, 5-HT transporter (Rattus norvegicus, UniProt P31652)
# T1 construct: these vesicular particles were isolated from the pons and medulla oblongata region of the male rat brain; from tissue; host or cells: rat brain synaptosomes (P2 fraction) from pons and medulla oblongata of male rats
# Assay: Inhibition of serotonin re-uptake (5-HT uptake inhibition) in rat brain synaptosomes
# Assay type: biochemical
# Conditions: rat brain synaptosomes (P2 fraction, pons and medulla oblongata); means from 2 parallel experiments; concentration not given
# Experimental: The investigations of the inhibition of serotonin re-uptake (5-HT uptake inhibition) were carried out by the methods such as are described in M. Ch. Frink, H. -H. -Hennies, W. Englberger, M. Haurand and B. Wilffert, Arzneim.-Forsch./Drug. Res. 46 (III), 11, 1996, pages 1029–1036. They are introduced herewith as reference and thus form part of the disclosure.
# To carry out these investigations, synaptosomes were freshly isolated from rat brain areas. In each case the so-called “P2” fraction was used, which was prepared according to the instructions in E. G. Gray and V. P. Whittaker, J. Anat. 76, pages 79–88, 1962. This literature is introduced herewith as reference and thus forms part of the disclosure. For determination of the 5-HT uptake, these vesicular particles were isolated from the pons and medulla oblongata region of the male rat brain.
# The following characteristic data were determined for the 5-HT transporter: • 5-HT uptake: Km=0.084±0.011 μM • Vmax: 38.13±4.52 pmol/min/mg protein.
# The results of the investigations are in each case stated as means from 2 parallel experiments.
# T1 sequence (P31652 whole entry): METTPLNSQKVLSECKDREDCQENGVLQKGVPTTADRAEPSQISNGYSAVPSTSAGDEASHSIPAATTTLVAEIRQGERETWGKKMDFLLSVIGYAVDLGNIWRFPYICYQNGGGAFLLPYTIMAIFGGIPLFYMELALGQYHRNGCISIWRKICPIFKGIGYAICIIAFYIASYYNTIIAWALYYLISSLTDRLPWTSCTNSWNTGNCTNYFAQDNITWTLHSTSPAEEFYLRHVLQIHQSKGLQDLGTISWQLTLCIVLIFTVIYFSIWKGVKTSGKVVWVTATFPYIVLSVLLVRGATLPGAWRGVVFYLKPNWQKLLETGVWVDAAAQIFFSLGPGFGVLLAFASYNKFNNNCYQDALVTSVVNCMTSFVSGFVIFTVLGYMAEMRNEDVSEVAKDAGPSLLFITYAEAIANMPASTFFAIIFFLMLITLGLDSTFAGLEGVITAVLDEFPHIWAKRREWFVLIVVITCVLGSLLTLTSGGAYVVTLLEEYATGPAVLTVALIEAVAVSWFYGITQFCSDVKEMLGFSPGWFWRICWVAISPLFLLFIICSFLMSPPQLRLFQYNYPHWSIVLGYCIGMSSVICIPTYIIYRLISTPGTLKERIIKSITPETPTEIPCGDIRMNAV
row,Inhibition of 5HT uptake in % [%],Compound
1,48,"COc1ccccc1C(c1c(C)[nH]c2ccccc12)N(C)C (stereo not shown) [Example 44, [(2-Methoxyphenyl)-(2-methyl-1H-indol-3-yl)-methyl]-dimethylamine]"
2,60,"CCn1c(-c2ccccc2)c(C(c2ccc(C(C)(C)C)cc2)N(C)C)c2ccccc21 (stereo not shown) [Example 72, [(4-tert-Butyl-phenyl)-(1-ethyl-2-phenyl-1H-indol-3-yl)-methyl]-dimethyl-amine]"
3,41,"Cc1[nH]c2ccccc2c1C(c1ccc(F)cc1Cl)N(C)C (stereo not shown) [Example 73, [(2-Chloro-4-fluoro-phenyl)-(2-methyl-1H-indol-3-yl)-methyl]-dimethyl-amine]"
4,72,"Cc1[nH]c2ccccc2c1C(c1c(F)cccc1Cl)N(C)C (stereo not shown) [Example 74, [(2-Chloro-6-fluoro-phenyl)-(2-methyl-1H-indol-3-yl)-methyl]-dimethyl-amine]"
5,39,"COc1cccc(C(c2c[nH]c3cccc([N+](=O)[O-])c23)N(C)C)c1OC (stereo not shown) [Example 75, [(2,3-Dimethoxy-phenyl)-(4-nitro-1H-indol-3-yl)-methyl]-dimethylamine]"
6,42,"COc1cccc(C(c2c[nH]c3c2CC=C(C(=O)O)C3)N(C)C)c1OC (stereo not shown) [Example 76, 3-[(2,3-Dimethoxy-phenyl)-dimethylamino-methyl]-4,7-dihydro-1H-indole-6-carboxylic Acid]"
7,38,"COc1cccc(C(c2c(C(=O)O)[nH]c3ccc(O)cc23)N(C)C)c1OC (stereo not shown) [Example 77, 3-[(2,3-Dimethoxy-phenyl)-dimethylamino-methyl]-5-hydroxy-1H-indole-2-carboxylic Acid]"
8,73,"COc1ccc(C(c2c(C)[nH]c3ccccc23)N(C)C)cc1OC (stereo not shown) [Example 78, [(3,4-Dimethoxy-phenyl)-(2-methyl-1H-indol-3-yl)-methyl]-dimethyl-amine]"
9,50,"COc1ccc(C(c2c(-c3ccc(Cl)cc3)[nH]c3ccccc23)N(C)C)cc1OC (stereo not shown) [Example 79, [[2-(4-Chloro-phenyl)-1H-indol-3-yl]-(3,4-dimethoxy-phenyl)-methyl]-dimethyl-amine]"
10,42,"CCn1c(-c2ccccc2)c(C(c2ccc(OC)c(OC)c2)N(C)C)c2ccccc21 (stereo not shown) [Example 80, [(3,4-Dimethoxy-phenyl)-(1-ethyl-2-phenyl-1H-indol-3-yl)-methyl]-dimethyl-amine]"
11,68,"CCc1cccc2c(C(c3ccc(OC)c(OC)c3)N(C)C)c[nH]c12 (stereo not shown) [Example 81, [(3,4-Dimethoxy-phenyl)-(7-ethyl-1H-indol-3-yl)-methyl]-dimethyl-amine]"
12,42,"COc1ccc(C(c2cn(C)c3ccccc23)N(C)C)cc1OC (stereo not shown) [Example 82, [(3,4-Dimethoxy-phenyl)-(1-methyl-1H-indol-3-yl)-methyl]-dimethyl-amine]"
13,39,"COc1ccc(C(c2c(-c3ccc(F)cc3)[nH]c3ccccc23)N(C)C)cc1OC (stereo not shown) [Example 83, [(3,4-Dimethoxy-phenyl)-[2-(4-fluoro-phenyl)-1H-indol-3-yl]-methyl]-dimethylamine]"
14,44,"COc1ccc(C(c2c(-c3ccc(F)c(Cl)c3)[nH]c3ccccc23)N(C)C)cc1OC (stereo not shown) [Example 84, [[2-(3-Chloro-4-fluoro-phenyl)-1H-indol-3-yl]-(3,4-dimethoxy-phenyl)-methyl]-dimethyl-amine]"
15,44,"CN(C)C(c1ccccc1F)c1c[nH]c2ccc(Cl)cc12 (stereo not shown) [Example 85, [(5-Chloro-1H-indol-3-yl)-(2-fluoro-phenyl)-methyl]-dimethyl-amine]"
16,41,"Cc1cccc2[nH]cc(C(c3ccc(F)cc3)N(C)C)c12 (stereo not shown) [Example 86, [(4-Fluoro-phenyl)-(4-methyl-1H-indol-3-yl)-methyl]-dimethyl-amine]"
17,50,"CCc1cccc2c(C(c3ccccc3OC)N(C)C)c[nH]c12 (stereo not shown) [Example 87, [(7-Ethyl-1H-indol-3-yl)-(2-methoxy-phenyl)-methyl]-dimethyl-amine]"

row,Inhibition of 5HT uptake in % [%],Compound
1,62,"Cc1ccccc1C(c1c(C)[nH]c2ccccc12)N(C)C (stereo not shown) [Example 88, Dimethyl-[(2-methyl-1H-indol-3-yl)-o-tolyl-methyl]-amine]"
2,45,"CCc1cccc2c(C(c3ccccc3C)N(C)C)c[nH]c12 (stereo not shown) [Example 89, [(7-Ethyl-1H-indol-3-yl)-o-tolyl-methyl]-dimethyl-amine]"
3,44,"Cc1ccccc1C(c1cn(C)c2ccccc12)N(C)C (stereo not shown) [Example 90, Dimethyl-[(1-methyl-1H-indol-3-yl)-o-tolyl-methyl]-amine]"
4,49,"Cc1ccccc1C(c1c[nH]c2ccc(Cl)cc12)N(C)C (stereo not shown) [Example 91, [(5-Chloro-1H-indol-3-yl)-o-tolyl-methyl]-dimethyl-amine]"
5,46,"Cc1cccc(C(c2c[nH]c3ccc(Cl)cc23)N(C)C)c1 (stereo not shown) [Example 92, [(5-Chloro-1H-indol-3-yl)-m-tolyl-methyl]-dimethyl-amine]"
6,78,"Cc1ccc(C(c2c(C)[nH]c3ccccc23)N(C)C)cc1 (stereo not shown) [Example 93, Dimethyl-[(2-methyl-1H-indol-3-yl)-p-tolyl-methyl]-amine]"
7,64,"Cc1ccc(C(c2c[nH]c3ccc(Cl)cc23)N(C)C)cc1 (stereo not shown) [Example 94, [(5-Chloro-1H-indol-3-yl)-p-tolyl-methyl]-dimethyl-amine]"
8,70,"Cc1[nH]c2ccccc2c1C(c1cccc(Oc2ccccc2)c1)N(C)C (stereo not shown) [Example 95, Dimethyl-[(2-methyl-1H-indol-3-yl)-(3-phenoxy-phenyl)-methyl]-amine]"
9,55,"CCn1c(-c2ccccc2)c(C(c2cccc(Oc3ccccc3)c2)N(C)C)c2ccccc21 (stereo not shown) [Example 96, [(1-Ethyl-2-phenyl-1H-indol-3-yl)-(3-phenoxy-phenyl)-methyl]-dimethylamine]"
10,79,"CCc1cccc2c(C(c3cccc(Oc4ccccc4)c3)N(C)C)c[nH]c12 (stereo not shown) [Example 97, [(7-Ethyl-1H-indol-3-yl)-(3-phenoxy-phenyl)-methyl]-dimethyl-amine]"
11,66,"CN(C)C(c1cccc(Oc2ccccc2)c1)c1cn(C)c2ccccc12 (stereo not shown) [Example 98, Dimethyl-[(1-methyl-1H-indol-3-yl)-(3-phenoxy-phenyl)-methyl]-amine]"
12,42,"CN(C)C(c1cccc(Oc2ccccc2)c1)c1c(-c2ccc(F)cc2)[nH]c2ccccc12 (stereo not shown) [Example 99, [[2-(4-Fluoro-phenyl)-1H-indol-3-yl]-(3-phenoxy-phenyl)-methyl]-dimethyl-amine]"
13,48,"NC(c1cccc(Oc2ccccc2)c1)c1c(-c2ccc(F)c(Cl)c2)[nH]c2ccccc12 (stereo not shown) [Example 100, [[2-(3-Chloro-4-fluoro-phenyl)-1H-indol-3-yl]-(3-phenoxy-phenyl)-methyl]-amine]"
14,41,"Cc1cccc2[nH]cc(C(c3cccc(Oc4ccccc4)c3)N(C)C)c12 (stereo not shown) [Example 101, Dimethyl-[(4-methyl-1H-indol-3-yl)-(3-phenoxy-phenyl)-methyl]-amine]"
15,42,"CN(C)C(c1ccccc1C(F)(F)F)c1c[nH]c2ccc(Cl)cc12 (stereo not shown) [Example 102, [(5-Chloro-1H-indol-3-yl)-(2-trifluoromethyl-phenyl)-methyl]-dimethyl-amine]"
16,74,"Cc1[nH]c2ccccc2c1C(c1ccc(C(F)(F)F)cc1)N(C)C (stereo not shown) [Example 103, Dimethyl-[(2-methyl-1H-indol-3-yl)-(4-trifluoromethyl-phenyl)-methyl]-amine]"

# Tested on: α2-subtype of the human α-adrenergic receptor
# Assay: SPA test, affinity for the α2-subtype of the human α-adrenergic receptor
# Assay type: binding
# Conditions: not given
# Experimental: Wide-ranging testing of the indole Mannich bases according to the invention for their activity was carried out by the conventional high throughput screening methods, such as are described in John P. Devlin, High Throughput Screening, 1997, Marcel Dekker Inc. They are introduced here as a reference and are therefore part of the disclosure.
# The action of the indole Mannich bases according to the invention is determined in particular by the affinity for the N-methyl-D-aspartate (NMDA) receptor family, for (α-adrenergic receptors and opioid receptors.
# The compounds of the general formula 1 according to the invention investigated are suitable as ligands for the α2-subtype of the human α-adrenergic receptor, which is of importance for pain sensation.
# The affinity of the compounds according to the invention for this α2-subtype of the α-adrenergic receptor has been determined with the aid of the SPA test such as is described in John P. Devlin, High Throughput Screening, Marcel Dekker Inc. 1997, pages 307 to 316. This literature is introduced herewith as a reference and is therefore part of the disclosure. The affinities of the compounds according to the invention were in each case determined at a concentration of 10 μM.
row,"% Inhibition of α2 (humans), 10 μM [%]",Compound
1,51,5-Benzyloxy-3-(phenyl-pyrrolidin-yl-methyl)-1H-indole [Example 50]
2,40,"Cc1[nH]c2ccc([N+](=O)[O-])cc2c1C(c1ccccc1)N(C)C (stereo not shown) [Example 15, Dimethyl-[(2-methyl-5-nitro-1H-indol-3-yl)-phenylmethyl]-amine]"
3,43,"CN(C)C(c1cc(Br)ccc1F)c1c[nH]c2cccc([N+](=O)[O-])c12 (stereo not shown) [Example 51, [(5-Bromo-2-fluoro-phenyl)-(4-nitro-1H-indol-3-yl)-methyl]-dimethyl-amine]"
4,37,"CN(C)C(c1cc(Br)ccc1F)c1cn(C)c2ccccc12 (stereo not shown) [Example 52, [(5-Bromo-2-fluoro-phenyl)-(1-methyl-1H-indol-3-yl)-methyl]-dimethyl-amine]"
